Experimental data taken from US10597388B2, “Pyridazinone herbicides” (FMC CORPORATION, priority 2014, dated 2020).

How the values were obtained:
Format in all cases: in vivo
[1] = tested on: galium (catchweed bedstraw, Galium aparine); experiment: Test A greenhouse herbicide test, postemergence
Method in brief: (§1)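 Visual injury score, 0 (no effect) to 100 (complete control), versus untreated controls roughly 10 d after postemergence spray; plants at one- to two-leaf stage, 2 to 10 cm tall, in loam soil and sand, kept in greenhouse.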

[2] = tested on: blackgrass (Alopecurus myosuroides); experiment: Test A greenhouse herbicide test, postemergence
Method in brief: as §1

[3] = tested on: morningglory (Ipomoea coccinea); experiment: Test C greenhouse herbicide test, pre- and postemergence
Method in brief: (§2)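 Pre- and postemergence greenhouse screen; values are visual control ratings, 0 meaning no effect and 100 complete kill, assigned relative to untreated plants after 13 to 15 d.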

[4] = tested on: johnsongrass (Sorghum halepense); experiment: as above
Method in brief: as §2

[5] = tested on: foxtail, giant (giant foxtail, Setaria faberii); experiment: as above
Method in brief: as §2

[6] = tested on: galium (catchweed bedstraw, Galium aparine); experiment: as above
Method in brief: as §2

[7] = tested on: crabgrass, large (large crabgrass, Digitaria sanguinalis); experiment: as above
Method in brief: as §2

[8] = tested on: lambsquarters (Chenopodium album); experiment: as above
Method in brief: as §2

[9] = tested on: barnyardgrass (Echinochloa crus-galli); experiment: as above
Method in brief: as §2

[10] = tested on: ryegrass, Italian (Italian ryegrass, Lolium multiflorum); experiment: as above
Method in brief: as §2

[11] = tested on: wheat (winter wheat, Triticum aestivum); experiment: as above
Method in brief: as §2

[12] = tested on: ragweed (common ragweed, Ambrosia elatior); experiment: as above
Method in brief: as §2

[13] = tested on: oilseed rape (Brassica napus); experiment: as above
Method in brief: as §2

[14] = 125 g ai/ha, visual rating after approx. 10 d, 0 to 100 scale (0 no effect, 100 complete control)
[15] = 500 g ai/ha, 0 to 100 scale, 0 is no effect, 100 is complete control
[16] = Postemergence, 8 g ai/ha, scale 0 to 100 (0 no effect, 100 complete control)
[17] = Postemergence, 16 g ai/ha, scale 0 to 100 (0 no effect, 100 complete control)
[18] = Postemergence, 31 g ai/ha, 0 to 100 scale (0 no effect, 100 complete control)
[19] = Preemergence, 16 g ai/ha, scale 0 to 100, 0 is no effect, 100 is complete control
[20] = Preemergence, 31 g ai/ha, scale 0 to 100, 0 is no effect, 100 is complete control
[21] = Preemergence, 62 g ai/ha, scale 0 to 100, 0 is no effect, 100 is complete control
[22] = postemergence, 62 g ai/ha, scale 0 to 100, 0 no effect, 100 complete control
[23] = Preemergence, 8 g ai/ha, scale 0 to 100, 0 is no effect, 100 is complete control

SMILES: Cc1nn(C)c(=O)c(-c2c(C)sc3c(C)cc(Cl)cc23)c1O [Compound 35]
- Plant response rating, Galium [1, 14]: 100
- Galium plant response rating [1, 15]: 100
- Plant response rating, Blackgrass [2, 14]: 70
- Blackgrass plant response rating [2, 15]: 80
- Plant response rating, Morningglory [3, 16]: 100
- Plant response rating, Morningglory [3, 17]: 100
- Morningglory plant response rating [3, 18]: 100
- Plant response rating, Morningglory [3, 19]: 25
- Plant response rating, Morningglory [3, 20]: 25
- Plant response rating, Morningglory [3, 21]: 98
- Morningglory plant response rating [3, 22]: 100
- Plant response rating, Johnsongrass [4, 16]: 10
- Plant response rating, Johnsongrass [4, 17]: 15
- Johnsongrass plant response rating [4, 18]: 20
- Plant response rating, Johnsongrass [4, 19]: 0
- Plant response rating, Johnsongrass [4, 20]: 10
- Plant response rating, Johnsongrass [4, 21]: 10
- Johnsongrass plant response rating [4, 22]: 20
- Plant response rating, Foxtail, Giant [5, 16]: 25
- Plant response rating, Foxtail, Giant [5, 17]: 35
- Foxtail, Giant plant response rating [5, 18]: 50
- Plant response rating, Foxtail, Giant [5, 23]: 5
- Plant response rating, Foxtail, Giant [5, 19]: 25
- Plant response rating, Foxtail, Giant [5, 20]: 60
- Plant response rating, Foxtail, Giant [5, 21]: 85
- Foxtail, Giant plant response rating [5, 22]: 75
- Plant response rating, Galium [6, 16]: 90
- Plant response rating, Galium [6, 17]: 90
- Galium plant response rating [6, 18]: 90
- Plant response rating, Galium [6, 19]: 90
- Plant response rating, Galium [6, 20]: 90
- Plant response rating, Galium [6, 21]: 95
- Galium plant response rating [6, 22]: 95
- Plant response rating, Crabgrass, Large [7, 16]: 5
- Plant response rating, Crabgrass, Large [7, 17]: 5
- Crabgrass, Large plant response rating [7, 18]: 20
- Plant response rating, Crabgrass, Large [7, 23]: 0
- Plant response rating, Crabgrass, Large [7, 19]: 0
- Plant response rating, Crabgrass, Large [7, 20]: 5
- Plant response rating, Crabgrass, Large [7, 21]: 5
- Crabgrass, Large plant response rating [7, 22]: 20
- Plant response rating, Lambsquarters [8, 16]: 35
- Plant response rating, Lambsquarters [8, 17]: 75
- Lambsquarters plant response rating [8, 18]: 80
- Plant response rating, Lambsquarters [8, 19]: 5
- Plant response rating, Lambsquarters [8, 20]: 20
- Plant response rating, Lambsquarters [8, 21]: 100
- Lambsquarters plant response rating [8, 22]: 70
- Plant response rating, Barnyardgrass [9, 16]: 10
- Plant response rating, Barnyardgrass [9, 17]: 10
- Barnyardgrass plant response rating [9, 18]: 20
- Plant response rating, Barnyardgrass [9, 23]: 0
- Plant response rating, Barnyardgrass [9, 19]: 5
- Plant response rating, Barnyardgrass [9, 20]: 5
- Plant response rating, Barnyardgrass [9, 21]: 25
- Barnyardgrass plant response rating [9, 22]: 20
- Plant response rating, Ryegrass, Italian [10, 16]: 10
- Plant response rating, Ryegrass, Italian [10, 17]: 30
- Ryegrass, Italian plant response rating [10, 18]: 35
- Plant response rating, Ryegrass, Italian [10, 19]: 50
- Plant response rating, Ryegrass, Italian [10, 20]: 65
- Plant response rating, Ryegrass, Italian [10, 21]: 70
- Ryegrass, Italian plant response rating [10, 22]: 55
- Plant response rating, Wheat [11, 16]: 0
- Plant response rating, Wheat [11, 17]: 0
- Wheat plant response rating [11, 18]: 0
- Plant response rating, Wheat [11, 19]: 0
- Plant response rating, Wheat [11, 20]: 0
- Plant response rating, Wheat [11, 21]: 5
- Wheat plant response rating [11, 22]: 5
- Plant response rating, Ragweed [12, 16]: 0
- Plant response rating, Ragweed [12, 17]: 0
- Ragweed plant response rating [12, 18]: 25
- Plant response rating, Ragweed [12, 19]: 0
- Plant response rating, Ragweed [12, 20]: 5
- Plant response rating, Ragweed [12, 21]: 40
- Ragweed plant response rating [12, 22]: 40
- Plant response rating, Oilseed Rape [13, 16]: 0
- Plant response rating, Oilseed Rape [13, 17]: 0
- Plant response rating, Oilseed Rape [13, 19]: 5
- Plant response rating, Oilseed Rape [13, 20]: 90
- Plant response rating, Oilseed Rape [13, 21]: 90
- Oilseed Rape plant response rating [13, 22]: 10
